Test results published in ChEMBL document CHEMBL5053534, “Germacrane sesquiterpenes from leaves of Eupatorium chinense inhibit protein tyrosine phosphatase” (Bioorg Med Chem Lett, 2021).

How the values were obtained:
[1] = molecular target: T1, Tyrosine-protein phosphatase non-receptor type 2 (Homo sapiens, UniProt P17706); test: Inhibition of human recombinant TCPTP using pNPP as substrate assessed as reduction in p-nitrophenol release incubated for 30 mins by absorbance based analysis
T1 sequence (P17706 whole entry): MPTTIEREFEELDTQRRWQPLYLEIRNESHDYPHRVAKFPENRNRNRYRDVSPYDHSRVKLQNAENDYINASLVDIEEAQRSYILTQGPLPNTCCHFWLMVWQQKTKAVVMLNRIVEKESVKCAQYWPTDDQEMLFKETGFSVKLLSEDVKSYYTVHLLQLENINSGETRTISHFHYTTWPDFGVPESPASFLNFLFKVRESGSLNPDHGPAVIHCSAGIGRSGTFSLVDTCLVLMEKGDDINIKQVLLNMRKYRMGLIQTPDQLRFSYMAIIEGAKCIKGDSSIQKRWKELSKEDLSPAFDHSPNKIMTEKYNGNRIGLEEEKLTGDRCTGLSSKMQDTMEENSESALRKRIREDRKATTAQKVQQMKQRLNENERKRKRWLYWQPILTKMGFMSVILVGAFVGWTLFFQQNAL

[2] = molecular target: T2, Tyrosine-protein phosphatase non-receptor type 1 (Homo sapiens, UniProt P18031); test: Inhibition of human recombinant PTP1B using pNPP as substrate assessed as reduction in p-nitrophenol release incubated for 30 mins by absorbance based analysis
T2 sequence (P18031 whole entry): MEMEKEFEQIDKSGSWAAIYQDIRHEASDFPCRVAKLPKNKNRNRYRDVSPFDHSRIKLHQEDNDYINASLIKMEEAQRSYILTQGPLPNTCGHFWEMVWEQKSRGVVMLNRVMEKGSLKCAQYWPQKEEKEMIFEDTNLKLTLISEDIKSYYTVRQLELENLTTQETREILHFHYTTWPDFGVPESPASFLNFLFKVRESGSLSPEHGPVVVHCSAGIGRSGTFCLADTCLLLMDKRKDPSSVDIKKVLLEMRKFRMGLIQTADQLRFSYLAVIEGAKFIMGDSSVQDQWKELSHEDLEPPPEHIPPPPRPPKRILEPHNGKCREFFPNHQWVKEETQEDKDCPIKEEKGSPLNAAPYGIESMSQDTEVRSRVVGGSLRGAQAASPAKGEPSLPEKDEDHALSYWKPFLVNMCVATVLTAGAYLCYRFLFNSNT

SMILES	IC50 [1] [µM]	IC50 [2] [µM]
C=C1C(=O)O[C@@H]2/C=C(\C)CC/C=C(\C)C[C@@H](OC(=O)/C(=C/CO)CO)[C@@H]12	> 28	> 28
C=C1C(=O)O[C@@H]2/C=C(\C)CC/C=C(\C)C[C@@H](OC(=O)/C(=C\C)CO)[C@@H]12	25	11
C=C1C(=O)O[C@@H]2/C=C(\C)C[C@H](O)/C=C(\C)C[C@@H](OC(=O)/C(=C\C)COC(C)=O)[C@@H]12	> 25	> 25
C=C1C(=O)O[C@@H]2/C=C(\C)CC/C=C(\C)C[C@@H](OC(=O)/C(=C/C)CO)[C@@H]12	> 29	> 29
C=C1C(=O)O[C@@H]2/C=C(\C)[C@@H](O)C/C=C(\C)C[C@@H](OC(=O)/C(=C\C)COC(C)=O)[C@@H]12	> 25	25
C=C1C(=O)O[C@@H]2/C=C(\C)CC/C=C(\C)C[C@@H](OC(=O)/C(=C/C)COC(C)=O)[C@@H]12	> 25	> 25

More lines, now with the values ahead:

IC50 [1] [µM]	IC50 [2] [µM]	SMILES
> 25	> 25	C=C1C(=O)O[C@@H]2/C=C(\C)CC/C=C(\CO)C[C@@H](OC(=O)/C(C)=C/C)[C@@H]12
> 29	> 29	C=C1C(=O)O[C@@H]2/C=C(\C)CC/C=C(\C)C[C@@H](OC(=O)/C(=C\COC(C)=O)CO)[C@@H]12
> 28	28	C=C1C(=O)O[C@@H]2/C=C(\C)C[C@H](O)/C=C(\C)C[C@@H](OC(=O)/C(=C\C)CO)[C@@H]12
